Source: publication PMC4574934, “Gliadin Induces Neutrophil Migration via Engagement of the Formyl Peptide Receptor, FPR1” (PLoS ONE, 2015)

Test system: human neutrophils
Test: EZ-TAXIScan chemotaxis assay, human neutrophils
Format: cell-based
Set-up: key to Chemotactic response: moderate (++) response; stronger chemotactic response (+++)
Details: for Chemotactic response / Chemotaxis Index (CI) / Speed: Table 2, peptide 20 ng/mL, 1-3 experiments; for Chemotaxis Index (CI), Control / Speed, Control: no cyclosporine H
Protocol: Heparinized venous blood was centrifuged over a Ficoll-Paque PLUS gradient (d = 1.077 g/ml, GE Healthcare, Boston, MA). The sedimented granulocyte/erythrocyte fraction was collected, and erythrocytes were lysed with cold lysis buffer (155 mM NH4Cl, 10 mM KHCO3, 0.1 mM EDTA). Cells were resuspended in HBSS without Ca^2+/Mg^2+ (Thermo Scientific, Tewksbury, MA), and viability and purity were assessed as described above. Viability of neutrophils was >95%, purity was 98–99%.
Neutrophils were counted and applied in the EZ-TAXIScan chemotaxis assay. […] The EZ-TAXIScan chamber (Effector Cell Institute, Tokyo) was assembled as described by the manufacturer. Cell migration was recorded every 15 seconds for 30 minutes at 37°C in a humidified environmental chamber. Coverslips and chips used in the chamber were coated with 1% BSA at room temperature for 1 hour. All glass coverslips were ultrasonicated and washed before use. Cell migration analysis was conducted with MATLAB software. Cell tracks were subsequently used to compute the chemotaxis index (CI) and speed for each tracked cell at each time step, as well as the average CI and average speed for each experiment.

[1] = Table 3, in the presence of cyclosporine H (FPR1 inhibitor), 2-3 experiments
[2] = human neutrophils pretreated with cyclosporine H
[3] = Table 1, neutrophils pretreated with cyclosporine H (FPR1 inhibitor), 5 experiments

Molecule | Chemotactic response | Chemotaxis Index (CI) | Speed [μm/minute] | further results
LQELCCQHLWQIPEQSQCQA [alpha-gliadin synthetic library peptide] | ++ | 0.18 | 8.85 | 
SSQVSFQQPLQQYPLGQGSF [alpha-gliadin synthetic library peptide] | ++ | 0.19 | 7.65 | 
QIPEQSQCQAIHNVVHAIIL [alpha-gliadin synthetic library peptide] | +++ | 0.33 | 8.64 | 
QQHNIAHGRSQVLQQSTYQL [alpha-gliadin synthetic library peptide] | +++ | 0.28 ± 0.01 | 10.17 ± 1.45 | Chemotaxis Index (CI), Cyclosporine H [1]: 0.05 ± 0.02; Speed, Cyclosporine H [1]: 0.48 ± 0.19 μm/minute; Chemotaxis Index (CI), Control (Table 3, 2-3 experiments): 0.27 ± 0.02; Speed, Control (Table 3, 2-3 experiments): 6.65 ± 0.33 μm/minute
PPYCTIVPFGIFGTNYR [alpha-gliadin synthetic library peptide] | ++ | 0.29 ± 0.01 | 8.55 ± 0.11 | 
QQYPLGQGSFRPSQQNPLAQ [alpha-gliadin synthetic library peptide] | ++ | 0.21 | 8.08 | 
GSVQPQQLPQFEEIRNLALQ [alpha-gliadin synthetic library peptide] | +++ | 0.34 ± 0.01 | 8.10 ± 0.18 | Chemotaxis Index (CI), Cyclosporine H [1]: 0.02 ± 0.01; Speed, Cyclosporine H [1]: 0.30 ± 0.06 μm/minute; Chemotaxis Index (CI), Control (Table 3, 2-3 experiments): 0.33 ± 0.07; Speed, Control (Table 3, 2-3 experiments): 7.90 ± 0.87 μm/minute
QVLQQSTYQLLQELCCQHLW [alpha-gliadin synthetic library peptide] | ++ | 0.33 | 7.49 | 
PFPQPQLPYLQPQPFRPQQP [alpha-gliadin synthetic library peptide] | ++ | 0.21 ± 0.01 | 9.94 ± 0.09 | 
cyclosporine H [reference compound] |  |  |  | effect on PT-gliadin-induced chemotaxis [2]: completely abrogated; effect on fMLP-mediated neutrophil chemotaxis [2]: abolished; effect on leukotriene B4 (LTB4)-mediated chemotaxis [2]: remained unaffected
MVRVPVPQLQPQNPSQQHPQ [alpha-gliadin synthetic library peptide] | ++ | 0.30 ± 0.01 | 6.68 ± 1.92 | Chemotaxis Index (CI), Cyclosporine H [1]: 0.03 ± 0.01; Speed, Cyclosporine H [1]: 0.45 ± 0.11 μm/minute; Chemotaxis Index (CI), Control (Table 3, 2-3 experiments): 0.28 ± 0.03; Speed, Control (Table 3, 2-3 experiments): 7.50 ± 1.95 μm/minute
CCCCC/C=C\C[C@@H](O)/C=C/C=C/C=C\[C@@H](O)CCCC(=O)O [LTB4, leukotriene B4, reference compound] |  |  |  | Chemotaxis Index (CI), Cyclosporine H [3]: 0.49 ± 0.01; Speed, Cyclosporine H [3]: 9.23 ± 0.07 μm/minute; Chemotaxis Index (CI), Control (Table 1, 5 experiments): 0.51 ± 0.01; Speed, Control (Table 1, 5 experiments): 9.68 ± 0.30 μm/minute
PQQPISQQQQQQQQQQQQQQ [alpha-gliadin synthetic library peptide] | ++ | 0.29 | 7.62 | 
PQNPSQQHPQEQVPLVQQQQ [alpha-gliadin synthetic library peptide] | ++ | 0.23 | 6.73 | 
